The source made the active and inactive calls.
Key:
[1] = T. cruzi growth inhibition in host cells, dose response, cell-based, plate reader, dry powder, set 2 (AID 652275); type: functional
[2] = growth inhibition of intracellular T. cruzi, dose response, cell-based, plate reader, dry powder samples (AID 651845); type: functional
[3] = T. cruzi intracellular amastigote growth inhibition, dose response, imaging, CA-I/72 strain, bovine embryo skeletal muscle, dry powder (AID 651885); type: functional, cell-based
[4] = CEM21 cell cytotoxicity, dose response, cytotoxicity control, plate reader, dry powder (AID 687026); type: functional, cell-based
[5] = target: Disintegrin and metalloproteinase domain-containing protein 17 (Homo sapiens, UniProt P78536); experiment: exosite inhibitors of ADAM17, dose response, biochemical (AID 743260)
[6] = ADAM10 protease inhibitors, dose response, selectivity assay for ADAM17 exosite inhibitor project, biochemical, FRET peptide substrate, recombinant human ADAM10 (AID 743259);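 note: ADAM10 enzyme cleaving a FRET peptide substrate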
[7] = target: T1, Caspase-3 (Homo sapiens, UniProt P42574); type: functional;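 note: Dose-response selectivity test against caspase-3 for candidate inhibitors of sentrin-specific proteases (SENPs)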
T1 sequence (P42574 whole entry): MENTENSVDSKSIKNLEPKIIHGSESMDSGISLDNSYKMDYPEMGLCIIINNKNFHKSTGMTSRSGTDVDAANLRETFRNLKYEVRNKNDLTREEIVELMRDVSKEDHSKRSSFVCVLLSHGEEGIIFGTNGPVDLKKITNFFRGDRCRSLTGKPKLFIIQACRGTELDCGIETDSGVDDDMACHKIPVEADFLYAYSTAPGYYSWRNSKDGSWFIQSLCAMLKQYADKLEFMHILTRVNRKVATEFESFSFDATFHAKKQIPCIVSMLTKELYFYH

[8] = target: T2, Sentrin-specific protease 7 (Homo sapiens, UniProt Q9BQF6); type: functional;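 note: Luminescence-based dose-response confirmation of ultra-high-throughput screening hits, measuring inhibition of SENP7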
T2 sequence (Q9BQF6 whole entry): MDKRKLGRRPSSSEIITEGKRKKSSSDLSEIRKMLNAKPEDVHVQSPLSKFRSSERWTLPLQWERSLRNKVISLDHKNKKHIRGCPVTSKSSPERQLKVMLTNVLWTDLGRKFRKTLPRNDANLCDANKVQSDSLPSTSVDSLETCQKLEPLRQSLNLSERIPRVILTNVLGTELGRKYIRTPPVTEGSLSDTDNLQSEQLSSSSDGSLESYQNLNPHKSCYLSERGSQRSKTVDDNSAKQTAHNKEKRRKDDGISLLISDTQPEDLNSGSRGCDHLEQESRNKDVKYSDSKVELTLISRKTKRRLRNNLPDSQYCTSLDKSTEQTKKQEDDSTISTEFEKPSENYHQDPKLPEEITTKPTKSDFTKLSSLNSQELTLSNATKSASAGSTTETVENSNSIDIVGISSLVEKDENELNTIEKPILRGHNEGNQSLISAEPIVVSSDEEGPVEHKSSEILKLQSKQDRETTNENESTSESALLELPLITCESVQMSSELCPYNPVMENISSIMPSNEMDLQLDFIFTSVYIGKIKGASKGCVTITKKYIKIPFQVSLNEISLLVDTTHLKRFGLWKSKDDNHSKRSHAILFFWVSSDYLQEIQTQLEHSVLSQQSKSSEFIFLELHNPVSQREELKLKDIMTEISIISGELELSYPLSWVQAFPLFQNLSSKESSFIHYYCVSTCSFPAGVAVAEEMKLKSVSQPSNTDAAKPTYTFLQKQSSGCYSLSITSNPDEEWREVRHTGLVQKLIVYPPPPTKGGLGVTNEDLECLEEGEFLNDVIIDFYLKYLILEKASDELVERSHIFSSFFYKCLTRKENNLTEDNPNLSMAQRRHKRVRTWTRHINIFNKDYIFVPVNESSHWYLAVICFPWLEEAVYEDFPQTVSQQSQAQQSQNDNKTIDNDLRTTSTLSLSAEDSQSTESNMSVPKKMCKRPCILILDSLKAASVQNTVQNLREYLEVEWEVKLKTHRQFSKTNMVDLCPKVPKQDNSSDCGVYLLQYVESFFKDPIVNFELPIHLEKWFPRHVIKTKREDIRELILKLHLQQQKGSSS

[9] = target: T3, Sentrin-specific protease 6 (Homo sapiens, UniProt Q9GZR1); type: functional;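 note: Luminescence-based dose-response confirmatory assay of SENP6 inhibition, following up an ultra-high-throughput screen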
T3 sequence (Q9GZR1 whole entry): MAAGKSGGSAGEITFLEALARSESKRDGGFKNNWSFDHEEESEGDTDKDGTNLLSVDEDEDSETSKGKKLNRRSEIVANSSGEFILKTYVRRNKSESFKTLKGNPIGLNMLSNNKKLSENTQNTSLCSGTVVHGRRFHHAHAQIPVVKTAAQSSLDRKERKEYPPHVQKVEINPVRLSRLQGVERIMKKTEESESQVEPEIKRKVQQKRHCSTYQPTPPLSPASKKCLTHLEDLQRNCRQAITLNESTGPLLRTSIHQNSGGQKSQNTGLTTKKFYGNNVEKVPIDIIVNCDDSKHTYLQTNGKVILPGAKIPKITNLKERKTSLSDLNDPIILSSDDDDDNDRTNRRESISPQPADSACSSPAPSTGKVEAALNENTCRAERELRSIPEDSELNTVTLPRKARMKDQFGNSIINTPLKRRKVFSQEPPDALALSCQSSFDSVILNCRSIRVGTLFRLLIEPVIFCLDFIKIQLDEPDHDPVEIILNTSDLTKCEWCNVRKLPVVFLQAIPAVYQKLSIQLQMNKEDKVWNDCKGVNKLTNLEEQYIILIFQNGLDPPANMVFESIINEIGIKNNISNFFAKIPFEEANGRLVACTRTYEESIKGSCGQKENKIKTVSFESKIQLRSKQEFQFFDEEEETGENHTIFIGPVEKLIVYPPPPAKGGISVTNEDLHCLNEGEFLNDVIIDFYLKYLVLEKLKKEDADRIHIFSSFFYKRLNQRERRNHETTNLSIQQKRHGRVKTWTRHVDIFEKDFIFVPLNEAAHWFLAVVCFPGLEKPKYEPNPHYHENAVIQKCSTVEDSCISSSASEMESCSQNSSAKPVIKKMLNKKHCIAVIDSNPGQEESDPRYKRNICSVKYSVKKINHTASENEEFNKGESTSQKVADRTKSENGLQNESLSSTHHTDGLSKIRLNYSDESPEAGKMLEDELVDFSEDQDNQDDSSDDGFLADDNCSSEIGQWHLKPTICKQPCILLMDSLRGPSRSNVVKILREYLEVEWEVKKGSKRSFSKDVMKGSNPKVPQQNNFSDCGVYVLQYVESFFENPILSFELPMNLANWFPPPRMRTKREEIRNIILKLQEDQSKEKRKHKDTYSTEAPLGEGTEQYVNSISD

[10] = target: T4, Sentrin-specific protease 8 (Homo sapiens, UniProt Q96LD8); type: functional;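 note: luminescence read-out of SENP8 inhibition, dose-response confirmation following an ultra-high-throughput screen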
T4 sequence (Q96LD8 whole entry): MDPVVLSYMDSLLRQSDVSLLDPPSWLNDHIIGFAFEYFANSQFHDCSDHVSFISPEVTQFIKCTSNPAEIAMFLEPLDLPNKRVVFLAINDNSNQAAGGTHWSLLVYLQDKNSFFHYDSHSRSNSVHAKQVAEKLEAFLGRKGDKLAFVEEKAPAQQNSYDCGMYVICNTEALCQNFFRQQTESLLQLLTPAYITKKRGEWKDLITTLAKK

[11] = target: T5, Oxysterols receptor LXR-beta (Homo sapiens, UniProt P55055); type: functional, cell-based;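 note: agonist activity at LXR measured by a cell-based luminescence readout across a dose range, run as a counterscreen for daf-12 agonists; potency for activation of Gal4-LXR reporter so compounds are agonists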
T5 sequence (P55055 whole entry): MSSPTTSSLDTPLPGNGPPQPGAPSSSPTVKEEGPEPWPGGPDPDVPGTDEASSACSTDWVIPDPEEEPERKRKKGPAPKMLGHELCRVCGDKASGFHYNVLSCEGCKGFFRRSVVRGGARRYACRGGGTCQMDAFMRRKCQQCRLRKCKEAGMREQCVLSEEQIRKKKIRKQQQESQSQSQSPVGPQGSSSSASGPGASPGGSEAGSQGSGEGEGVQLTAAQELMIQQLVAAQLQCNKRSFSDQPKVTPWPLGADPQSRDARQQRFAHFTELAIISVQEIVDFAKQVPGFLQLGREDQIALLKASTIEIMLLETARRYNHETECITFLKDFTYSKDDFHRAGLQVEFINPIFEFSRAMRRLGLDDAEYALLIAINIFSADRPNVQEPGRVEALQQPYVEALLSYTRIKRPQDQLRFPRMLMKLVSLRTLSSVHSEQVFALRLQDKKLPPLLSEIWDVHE

[12] = target: Cytochrome P450 2D6 (Homo sapiens, UniProt P10635);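 note: CYP2D6 member of a cytochrome P450 panel assay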
[13] = target: Cytochrome P450 2C9 (Homo sapiens, UniProt P11712)
[14] = Luminescence-based cell-based high throughput dose response assay to identify activators of the DAF-12 from the parasite S. stercoralis (ssDAF-12).; type: functional
[15] = target: T5, Oxysterols receptor LXR-beta; experiment: LXR agonists, Gal4 luciferase reporter, dose response, counter-screen for ssDAF-12 agonist project, cell-based, luminescence, HEK293, S. stercoralis campaign (AID 720737); type: functional; conditions: read-out: IC50 (the source's name)
[16] = target: Endoplasmic reticulum aminopeptidase 1 (Homo sapiens, UniProt Q9NZ08); experiment: ERAP1 aminopeptidase inhibitors, dose response, biochemical, cherry-pick, set 2, plate reader (AID 743314)
[17] = target: Paired box protein Pax-8 (Homo sapiens, UniProt Q06710); experiment: inhibitors of PAX8-driven TPO luciferase reporter, dose response, RMG-I cells, cherry-pick (AID 687027); type: functional, cell-based;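 note: luciferase reporter driven by Pax8 target thyroperoxidase promoter measured by SteadyGlo luminescence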
[18] = PAX2 cell-based inhibition, dose response, selectivity assay for PAX8 inhibitor project, plate reader, dry powder samples (AID 743048); type: functional;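 note: HEK293 cells carrying a WT1 promoter luciferase reporter driven by expressed Pax2; potency is for inhibition of Pax2 driven reporter signal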
[19] = cytotoxicity in COV362 ovarian cancer cells, dose response, cytotoxicity control for PAX8 inhibitor project, cell-based, plate reader, dry powder, SA12 (AID 743144); type: functional
[20] = NIH:OVCAR-3 ovarian cancer cell cytotoxicity, dose response, PAX8 inhibitor project, plate reader, dry powder samples (AID 743044); type: functional, cell-based
[21] = PAX5 activity inhibitors, dose response, selectivity assay for PAX8 inhibitor project, cell-based, plate reader, dry powder samples (AID 743047); type: functional;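 note: HEK293 cells carrying a Pax5 driven CD19 promoter luciferase reporter; potency of inhibitors that lower reporter luminescence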
[22] = cytotoxicity in OVCAR4 cells, dose response, cytotoxicity control for PAX8 inhibitor project, cell-based, plate reader, dry powder, SA11 (AID 743150); type: functional; conditions: OVCAR-4
[23] = cytotoxicity in COV434 cells, dose response, cytotoxicity control for PAX8 inhibitor project, cell-based, plate reader, dry powder, SA7 (AID 743145); type: functional
[24] = cytotoxicity in OV-90 ovarian cancer cells, dose response, PAX8 inhibitor project, cell-based, plate reader, dry powder, SA8 (AID 743149); type: functional
[25] = cytotoxicity dependent on PAX8, dose response, cell-based, plate reader, dry powder (AID 743049); type: functional
[26] = P. falciparum 3D7-ScDHODH growth inhibitors, dose response, SYBR Green, dry powder samples (AID 1159570); type: functional, cell-based;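 note: parasite growth measured after 72 hours of compound exposure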
[27] = HepG2 cell cytotoxicity, dose response, cytotoxicity control, plate reader, dry powder samples (AID 1159569); type: functional, cell-based;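 note: inhibitor potency with signal falling toward the positive control level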
[28] = P. falciparum Dd2 growth inhibitors, dose response, SYBR Green, cherry-picked samples (AID 1159567); type: functional, cell-based
[29] = P. falciparum Dd2 growth inhibitors, dose response, SYBR Green, dry powder samples (AID 1159566); type: functional, cell-based;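 note: potency for growth inhibition with lower SYBR green DNA signal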
[30] = HepG2 cell cytotoxicity, dose response, cytotoxicity control, cherry-picked samples (AID 1159577); type: functional, cell-based
[31] = P. falciparum ATP4 D1247Y mutant growth inhibitors, dose response, NITD609-resistant line, SYBR Green, dry powder (AID 1159571); type: functional, cell-based;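 note: parasites synchronized at ring stage by sorbitol before testing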
[32] = Late stage assay provider results from the probe development effort to identify selective inhibitors of heat shock protein 90 (HSP90): Absorbance-based cell proliferation assay in SKBR3 cells.; type: functional; conditions: SK-BR-3
[33] = Late stage assay provider results from the probe development effort to identify selective inhibitors of heat shock protein 90 (HSP90): Absorbance-based cell proliferation assay in MCF7 cells.; type: functional
[34] = HEK293 cell cytotoxicity, dose response, cytotoxicity control, cherry-picks, set 5 (AID 1053117); type: functional, cell-based
[35] = inhibitors of fibronectin matrix deposition, dose response, AH1F cells, Alexa488-FN fluorescence, cherry-picks (AID 1035475); type: functional, cell-based
[36] = target: 1-phosphatidylinositol 4,5-bisphosphate phosphodiesterase gamma-1 (Homo sapiens, UniProt P19174); experiment: Counterscreen for inhibitors of phospholipase C isozymes (PLC-B3): Fluorescence-based biochemical high throughput dose response assay to identify inhibitors of phospholipase C isozymes (PLC-gamma1).
[37] = target: 1-phosphatidylinositol 4,5-bisphosphate phosphodiesterase beta-3 (Homo sapiens, UniProt Q01970); experiment: Fluorescence-based biochemical high throughput dose response assay to identify inhibitors of phospholipase C isozymes (PLC-B3).
Chain of 1-phosphatidylinositol 4,5-bisphosphate phosphodiesterase beta-3 (Q01970 whole entry): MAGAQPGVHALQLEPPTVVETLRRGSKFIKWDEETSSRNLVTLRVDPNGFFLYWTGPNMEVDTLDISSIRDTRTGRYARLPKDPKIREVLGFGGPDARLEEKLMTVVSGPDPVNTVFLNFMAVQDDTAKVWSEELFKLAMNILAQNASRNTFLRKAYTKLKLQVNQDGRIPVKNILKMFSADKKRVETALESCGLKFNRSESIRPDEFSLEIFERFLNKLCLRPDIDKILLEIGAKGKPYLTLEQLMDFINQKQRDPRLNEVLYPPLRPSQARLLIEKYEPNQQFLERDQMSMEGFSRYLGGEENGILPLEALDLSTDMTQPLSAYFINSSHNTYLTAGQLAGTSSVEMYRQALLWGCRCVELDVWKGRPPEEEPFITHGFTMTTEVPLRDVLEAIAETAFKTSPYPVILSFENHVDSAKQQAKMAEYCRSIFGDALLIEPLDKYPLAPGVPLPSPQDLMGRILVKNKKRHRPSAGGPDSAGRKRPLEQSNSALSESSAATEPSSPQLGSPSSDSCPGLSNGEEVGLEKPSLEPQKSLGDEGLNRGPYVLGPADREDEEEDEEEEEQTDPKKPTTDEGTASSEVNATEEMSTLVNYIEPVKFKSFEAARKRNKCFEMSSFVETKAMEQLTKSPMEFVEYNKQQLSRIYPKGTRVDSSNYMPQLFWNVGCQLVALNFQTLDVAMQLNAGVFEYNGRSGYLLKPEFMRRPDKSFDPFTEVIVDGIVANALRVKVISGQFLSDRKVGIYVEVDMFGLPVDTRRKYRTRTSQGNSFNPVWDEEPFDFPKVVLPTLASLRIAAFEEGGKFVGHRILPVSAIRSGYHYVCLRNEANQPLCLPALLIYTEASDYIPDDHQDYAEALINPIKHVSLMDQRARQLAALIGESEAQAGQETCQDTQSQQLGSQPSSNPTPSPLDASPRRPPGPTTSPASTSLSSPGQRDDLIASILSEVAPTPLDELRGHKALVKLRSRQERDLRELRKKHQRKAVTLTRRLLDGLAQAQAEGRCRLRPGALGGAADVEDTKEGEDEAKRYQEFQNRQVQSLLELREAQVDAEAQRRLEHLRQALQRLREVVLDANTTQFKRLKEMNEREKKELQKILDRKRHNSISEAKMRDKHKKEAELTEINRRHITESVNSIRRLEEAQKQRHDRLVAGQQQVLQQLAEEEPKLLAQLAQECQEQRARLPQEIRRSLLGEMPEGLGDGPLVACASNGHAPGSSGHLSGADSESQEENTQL

Chain of Disintegrin and metalloproteinase domain-containing protein 17 (P78536 whole entry, the tested form may be a part): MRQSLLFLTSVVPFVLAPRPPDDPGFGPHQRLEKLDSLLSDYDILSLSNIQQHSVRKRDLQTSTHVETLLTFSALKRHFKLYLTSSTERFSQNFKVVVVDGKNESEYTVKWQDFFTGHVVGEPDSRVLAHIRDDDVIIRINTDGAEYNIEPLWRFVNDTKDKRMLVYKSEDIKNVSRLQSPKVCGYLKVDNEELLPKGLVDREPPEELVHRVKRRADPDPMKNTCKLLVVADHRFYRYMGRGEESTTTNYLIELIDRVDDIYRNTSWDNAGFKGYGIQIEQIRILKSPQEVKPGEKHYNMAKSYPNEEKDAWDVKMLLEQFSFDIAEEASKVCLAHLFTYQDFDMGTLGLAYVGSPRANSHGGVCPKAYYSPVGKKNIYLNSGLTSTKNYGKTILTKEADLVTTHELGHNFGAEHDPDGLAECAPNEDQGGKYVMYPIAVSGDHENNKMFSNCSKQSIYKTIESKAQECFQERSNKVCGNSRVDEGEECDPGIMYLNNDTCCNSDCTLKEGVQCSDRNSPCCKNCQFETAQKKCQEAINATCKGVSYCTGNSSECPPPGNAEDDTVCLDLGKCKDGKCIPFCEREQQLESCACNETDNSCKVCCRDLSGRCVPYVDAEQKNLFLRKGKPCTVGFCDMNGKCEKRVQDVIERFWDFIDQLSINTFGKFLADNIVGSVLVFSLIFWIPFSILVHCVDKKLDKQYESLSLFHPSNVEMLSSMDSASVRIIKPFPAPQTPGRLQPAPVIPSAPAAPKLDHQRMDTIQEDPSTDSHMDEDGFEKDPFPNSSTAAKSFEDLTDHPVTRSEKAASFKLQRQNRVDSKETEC
Chain of 1-phosphatidylinositol 4,5-bisphosphate phosphodiesterase gamma-1 (P19174 whole entry): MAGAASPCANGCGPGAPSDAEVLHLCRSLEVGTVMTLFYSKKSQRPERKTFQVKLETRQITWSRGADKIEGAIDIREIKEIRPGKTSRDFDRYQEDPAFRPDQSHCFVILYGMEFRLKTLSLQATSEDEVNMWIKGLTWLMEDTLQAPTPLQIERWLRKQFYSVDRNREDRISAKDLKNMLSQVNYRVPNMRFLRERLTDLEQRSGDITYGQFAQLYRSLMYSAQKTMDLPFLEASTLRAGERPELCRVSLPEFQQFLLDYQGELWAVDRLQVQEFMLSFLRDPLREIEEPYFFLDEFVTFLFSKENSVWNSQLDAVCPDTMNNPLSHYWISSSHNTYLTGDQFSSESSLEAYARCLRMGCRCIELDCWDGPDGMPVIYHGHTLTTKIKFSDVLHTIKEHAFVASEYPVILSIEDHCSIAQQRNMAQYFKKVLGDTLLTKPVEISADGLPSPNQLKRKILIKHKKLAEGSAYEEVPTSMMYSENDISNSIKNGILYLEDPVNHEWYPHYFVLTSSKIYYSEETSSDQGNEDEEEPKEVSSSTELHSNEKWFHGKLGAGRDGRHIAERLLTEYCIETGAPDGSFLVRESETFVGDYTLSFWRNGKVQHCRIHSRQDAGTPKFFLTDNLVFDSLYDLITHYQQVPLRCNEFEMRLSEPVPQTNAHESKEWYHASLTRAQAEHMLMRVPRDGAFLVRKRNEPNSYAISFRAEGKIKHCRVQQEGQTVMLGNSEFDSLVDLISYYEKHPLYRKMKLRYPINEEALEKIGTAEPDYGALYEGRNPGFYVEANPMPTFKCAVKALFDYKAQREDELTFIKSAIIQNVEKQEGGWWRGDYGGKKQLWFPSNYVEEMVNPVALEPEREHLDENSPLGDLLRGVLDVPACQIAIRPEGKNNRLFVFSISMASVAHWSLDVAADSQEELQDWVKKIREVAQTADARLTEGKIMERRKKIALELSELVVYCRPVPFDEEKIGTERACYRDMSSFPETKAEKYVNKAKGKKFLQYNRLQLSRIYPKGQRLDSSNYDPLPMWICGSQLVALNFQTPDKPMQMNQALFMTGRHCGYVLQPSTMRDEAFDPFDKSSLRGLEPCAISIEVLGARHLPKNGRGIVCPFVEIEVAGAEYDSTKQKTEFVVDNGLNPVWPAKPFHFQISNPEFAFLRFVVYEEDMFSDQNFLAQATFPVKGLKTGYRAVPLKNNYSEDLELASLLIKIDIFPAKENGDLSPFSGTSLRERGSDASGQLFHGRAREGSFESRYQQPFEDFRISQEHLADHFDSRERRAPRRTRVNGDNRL
Chain of Endoplasmic reticulum aminopeptidase 1 (Q9NZ08 whole entry): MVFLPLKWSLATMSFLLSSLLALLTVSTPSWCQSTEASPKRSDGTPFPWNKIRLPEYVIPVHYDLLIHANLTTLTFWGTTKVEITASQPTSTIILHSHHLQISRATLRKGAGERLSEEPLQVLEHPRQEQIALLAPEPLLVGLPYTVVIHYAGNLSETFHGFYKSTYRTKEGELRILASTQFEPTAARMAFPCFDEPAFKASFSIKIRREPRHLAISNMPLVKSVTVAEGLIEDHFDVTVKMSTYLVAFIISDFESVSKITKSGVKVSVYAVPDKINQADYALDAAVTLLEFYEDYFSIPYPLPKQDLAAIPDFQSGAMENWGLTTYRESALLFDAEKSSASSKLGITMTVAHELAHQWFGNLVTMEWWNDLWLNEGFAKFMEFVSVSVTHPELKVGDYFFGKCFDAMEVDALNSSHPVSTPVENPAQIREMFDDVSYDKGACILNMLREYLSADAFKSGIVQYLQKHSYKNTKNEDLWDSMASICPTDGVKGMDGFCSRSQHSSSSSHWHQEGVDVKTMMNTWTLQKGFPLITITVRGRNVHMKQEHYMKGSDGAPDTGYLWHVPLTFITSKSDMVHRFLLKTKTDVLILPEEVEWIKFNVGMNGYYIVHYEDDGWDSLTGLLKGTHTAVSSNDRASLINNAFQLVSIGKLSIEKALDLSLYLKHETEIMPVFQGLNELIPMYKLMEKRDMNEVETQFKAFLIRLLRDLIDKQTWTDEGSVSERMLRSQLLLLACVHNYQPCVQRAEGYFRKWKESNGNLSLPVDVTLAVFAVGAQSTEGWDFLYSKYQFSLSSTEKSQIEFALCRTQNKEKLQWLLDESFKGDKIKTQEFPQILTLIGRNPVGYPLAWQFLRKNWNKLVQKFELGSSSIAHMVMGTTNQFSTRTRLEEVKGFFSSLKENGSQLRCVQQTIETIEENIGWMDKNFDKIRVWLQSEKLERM
Chain of Paired box protein Pax-8 (Q06710 whole entry): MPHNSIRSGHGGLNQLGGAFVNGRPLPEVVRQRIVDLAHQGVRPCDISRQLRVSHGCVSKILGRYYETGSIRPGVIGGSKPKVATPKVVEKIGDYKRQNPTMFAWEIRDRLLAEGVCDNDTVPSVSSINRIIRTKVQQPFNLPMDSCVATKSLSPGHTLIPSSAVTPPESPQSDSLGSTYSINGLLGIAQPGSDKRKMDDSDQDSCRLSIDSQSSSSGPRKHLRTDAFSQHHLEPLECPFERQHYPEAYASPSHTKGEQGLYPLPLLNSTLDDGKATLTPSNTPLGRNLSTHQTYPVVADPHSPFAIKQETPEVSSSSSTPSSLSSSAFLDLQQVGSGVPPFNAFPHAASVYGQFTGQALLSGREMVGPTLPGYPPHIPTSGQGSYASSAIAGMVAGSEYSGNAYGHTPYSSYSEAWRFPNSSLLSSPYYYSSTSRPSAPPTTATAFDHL

CCCn1ncc(CN(C)C[C@H]2Oc3c(NC(=O)c4ccncc4)cccc3C(=O)N(C(C)C)C[C@@H]2C)c1C
AC50 [1]: 0.521 µM (active) | AC50 [2]: 0.521 µM (active) | IC50 [3]: 2.92 µM (inconclusive)

CCOc1ccc(S(=O)(=O)NC(C)c2ccncc2)cc1 (configuration not stated)
AC50 [4]: > 70 µM (inactive)

Cc1ccc(C2=NS(=O)(=O)N(C)C(C(=O)Nc3ccc4c(c3)OCO4)=C2)cc1
IC50 [5]: > 69.5 µM (inactive) | IC50 [6]: 19 µM (inactive)

O=[N+]([O-])c1cccnc1NCCNc1ncc(C(F)(F)F)cc1Cl
IC50 [7]: 28.7 µM (active) | IC50 [8]: 6.52 µM (active) | IC50 [9]: 19.1 µM (active) | IC50 [10]: 23.3 µM (active) | EC50 [11]: > 67.5 µM (inactive) | AC50 [12]: 14.1 µM (inconclusive) | AC50 [13]: inconclusive

CCOc1ccccc1-n1nnnc1SCc1nc2ccccc2s1
IC50 [14]: > 67.5 µM (inactive) | EC50 [15]: > 67.5 µM (inactive)

Cc1cc(=O)oc2c(CN3CCCC3)c(O)ccc12
AC50 [16]: 11.8 µM (active)

COc1cccc(C#Cc2ccc([C@H]3[C@@H](CO)N(C(=O)C4CCCCC4)[C@H]3C#N)cc2)c1
AC50 [17]: 3.39 µM (active) | AC50 [18]: 16.8 µM (active) | AC50 [19]: 23.2 µM (active) | AC50 [20]: 46.6 µM (active) | AC50 [21]: 11.9 µM (active) | AC50 [22]: 7.73 µM (active) | AC50 [23]: 17.4 µM (active) | AC50 [24]: 24.7 µM (active) | AC50 [25]: 8.27 µM (active) | AC50 [26]: 1.86 µM (active) | AC50 [27]: 46.6 µM (active) | AC50 [28]: 0.833 µM (active) | AC50 [29]: 1.21 µM (active) | AC50 [30]: 36.2 µM (active) | AC50 [31]: 2.15 µM (active)

O=C1OC(=O)/C(=C\NCCc2ccccc2)C=C1Br
IC50 [32]: 3.7 µM (active) | IC50 [33]: 2.1 µM (active)

C[C@@H]1CN([C@@H](C)CO)C(=O)c2cc(NC(=O)C3CCCCC3)ccc2O[C@@H]1CN(C)Cc1ccc(-c2ccccc2)cc1
AC50 [34]: > 52 µM (inactive) | AC50 [35]: > 70 µM (inactive)

COc1ccnc2c1c(=O)n(Cc1ccc(Cl)cc1Cl)c(=O)n2C
IC50 [36]: > 122 µM (inactive) | IC50 [37]: > 122 µM (inactive)

— ChEMBL document CHEMBL1201862, “PubChem BioAssay data set” (2004)
